Biological target: T1, long form of human GPR120 (Homo sapiens, UniProt Q5NUL3)
T1 construct: host or cells: PathHunter CHO-K1 GPR120 β-Arrestin Cell Line
T1 sequence (Q5NUL3 1-377 isoform Q5NUL3-1): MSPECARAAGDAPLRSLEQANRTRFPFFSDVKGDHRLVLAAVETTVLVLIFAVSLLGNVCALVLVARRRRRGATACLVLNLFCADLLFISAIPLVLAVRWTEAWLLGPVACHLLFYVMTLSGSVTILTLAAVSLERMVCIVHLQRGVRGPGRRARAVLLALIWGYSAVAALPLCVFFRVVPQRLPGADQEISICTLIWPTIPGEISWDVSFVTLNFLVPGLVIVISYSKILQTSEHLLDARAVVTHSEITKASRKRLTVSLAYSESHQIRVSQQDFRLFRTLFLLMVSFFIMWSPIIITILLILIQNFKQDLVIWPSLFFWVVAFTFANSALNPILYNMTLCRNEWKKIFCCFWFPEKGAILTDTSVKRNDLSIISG
Test: Human GPR120 DiscoveRx PathHunter Beta-Arrestin assay, Procedure β-arrestin A
Format: cell-based
Conditions: PathHunter CHO-K1 GPR120 β-Arrestin Cell Line, long form of human GPR120, 3000 cells per well; read-out: hGPR120 β-arrestin A EC50
Source text: The binding of an agonist (medium/long chain fatty acids or small molecule agonists) to the G-protein-coupled receptor GPR120 activates phospholipase C, leading to release of intracellular Ca^+2 through the generation of inositol 1,4,5-trisphosphate (InsP3 or IP3). GPR120 activation can also trigger intracellular signaling via recruitment of Beta-Arrestin. In the present method, agonist-induced activation of the human GPR120 receptor is monitored through the use of PathHunter CHO-K1 GPR120 Beta-Arrestin Cell Line engineered by DiscoveRx, as detailed below. […]
Under these conditions, these fragments can interact and form an active Beta-gal enzyme complex through Enzyme Fragment Complementation (EFC). This active Beta-gal complex can enzymatically hydrolyse the substrate to produce a detectable light signal; therefore, activation as a function of agonist concentration can be expressed as an EC50 value to determine relative compound activities. […]
The plates were read on an EnVision instrument, using Protocol name: Luminescence, Plate type: 384 Costar, Measurement height: 3 mm, Measurement time: 1s, Aperture: 384 Plate aperture. The %activity relative to the positive control was calculated using the following equation: %Activity = (Countcompound −Countvehicle)/(Countpostivite control −Countvehicle) × 100% [formula] […]

| EC50 | Compound |
| --- | --- |
| 176 nM | O=C(O)CCc1ccc(OCc2c(C(F)(F)F)nsc2-c2ccc(Cl)cc2)c(Cl)c1Cl [Cpd 55, 3-(2,3-dichloro-4-[[5-(4-chlorophenyl)-3-(trifluoromethyl)-1,2-thiazol4-yl]methoxy]phenyl) propanoic acid] |
| 141 nM | O=C(O)CCc1cc(F)c(OCc2c(Cl)nsc2-c2ccc(Cl)cc2)c(F)c1 [Cpd 75, 3-(4-[[3-chloro-5-(4-chlorophenyl)-1,2-thiazol-4-yl]methoxy]-3,5-difluorophenyl)propanoic acid] |
